Test results taken from patent publication US6127375A, “4,4-disubstituted-3,4-dihydro-2(1H)-quinazolinthiones useful as HIV reverse transcriptase inhibitors” (Dupont Pharmaceuticals Company, priority 1999, dated 2000).
Values after ≈ are worked out from the molar mass of the structure shown.

Tested on: HIV-1 (RF)
Assay: HIV RNA Assay: Microplate Based Compound Evaluation in HIV-1 Infected MT-2 Cells
Format: cell-based
Details: Human immunodeficiency virus 1, MT2, 72 h; HIV-1 (RF) in MT-2 cells, 3 days at 37° C.; value to which virus inoculum was standardized (~3×10^5 PFU per assay well); read-out: IC90 value (concentration of compound required to reduce the HIV RNA level by 90%)
Protocol: Plasmid pDAB 72 containing both gag and pol sequences of BH10 (bp 113-1816) cloned into PTZ 19R was prepared according to Erickson-Viitanen et al. AIDS Research and Human Retroviruses 1989, 5, 577. The plasmid was linearized with Bam HI prior to the generation of in vitro RNA transcripts using the Riboprobe Gemini system II kit (Promega) with T7 RNA polymerase. Synthesized RNA was purified by treatment with RNase free DNAse (Promega), phenol-chloroform extraction, and ethanol precipitation. RNA transcripts were dissolved in water, and stored at -70° C. The concentration of RNA was determined from the A260.
Biotinylated capture probes were purified by HPLC after synthesis on an Applied Biosystems (Foster City, Calif.) DNA synthesizer by addition of biotin to the 5' terminal end of the oligonucleotide, using the biotin-phosphoramidite reagent of Cocuzza, Tet. Lett. 1989, 30, 6287. […]
MT-2 and MT-4 cells were maintained in RPMI 1640 supplemented with 5% fetal calf serum (FCS) for MT-2 cells or 10% FCS for MT-4 cells, 2 mM L-glutamine and 50 μg/mL gentamycin, all from Gibco. […] Infectious titers of HIV-1(RF) stocks were 1-3×10^7 PFU (plaque forming units)/mL as measured by plaque assay on MT-2 cells (see below). […]

IC90: 0.2 µg/mL (≈ 0.947 µM)
Structure (SMILES): Nc1ccn([C@H]2CC[C@@H](CO)O2)c(=O)n1 [ddC, 2',3'-dideoxycytidine]
